Measured values reported in ChEMBL document CHEMBL3046887, “Microwave-irradiated synthesis and antimicrobial activity of 2-phenyl-7-substitutedalkyl/arylaminoquinoline-4-carboxylic acid derivatives” (2010).
Activity calls are given as the source filed them. No cut-off for these calls is given here.

Experiments:
Format in all cases: functional
[1] = test system: Pseudomonas oleovorans; assay: Antibacterial activity against Pseudomonas oleovorans MTCC 617 at 10 ug/well after 24 hr by agar well diffusion method; settings: Ectopseudomonas oleovorans; for zone of inhibition at 10 µg/disc: MTCC 617, 24 h, read-out: DIZ
[2] = test system: Pseudomonas aeruginosa; assay: Antibacterial activity against Pseudomonas aeruginosa MTCC 741 at 10 ug/well after 24 hr by agar well diffusion method; settings: for zone of inhibition at 10 µg/disc: MTCC 741, 24 h, read-out: DIZ
[3] = test system: Enterococcus faecalis; assay: Antibacterial activity against Enterococcus faecalis MTCC 439 at 10 ug/well after 24 hr by agar well diffusion method; settings: for zone of inhibition at 10 µg/disc: MTCC 439, 24 h, read-out: DIZ
[4] = test system: Klebsiella pneumoniae; assay: Antibacterial activity against Klebsiella pneumoniae MTCC 109 at 10 ug/well after 24 hr by agar well diffusion method; settings: for zone of inhibition at 10 µg/disc: MTCC 109, 24 h, read-out: DIZ
[5] = test system: Escherichia coli; assay: Antibacterial activity against Escherichia coli MTCC 1652 at 10 ug/well after 24 hr by agar well diffusion method; settings: for zone of inhibition at 10 µg/disc: MTCC 1652, 24 h, read-out: DIZ
[6] = test system: Streptococcus pyogenes; assay: Antibacterial activity against Streptococcus pyogenes MTCC 442 at 10 ug/well after 24 hr by agar well diffusion method; settings: for zone of inhibition at 10 µg/disc: MTCC 442, 24 h, read-out: DIZ
[7] = test system: Bacillus pumilus; assay: Antibacterial activity against Bacillus pumilus MTCC 1640 at 10 ug/well after 24 hr by agar well diffusion method; settings: for zone of inhibition at 10 µg/disc: MTCC 1640, 24 h, read-out: DIZ
[8] = test system: Bacillus cereus; assay: Antibacterial activity against Bacillus cereus MTCC 430 at 10 ug/well after 24 hr by agar well diffusion method; settings: for zone of inhibition at 10 µg/disc: MTCC 430, 24 h, read-out: DIZ
[9] = test system: Bacillus subtilis; assay: Antibacterial activity against Bacillus subtilis MTCC 2397 at 10 ug/well after 24 hr by agar well diffusion method; settings: for zone of inhibition at 10 µg/disc: MTCC 2397, 24 h, read-out: DIZ
[10] = test system: Staphylococcus aureus; assay: Antibacterial activity against Staphylococcus aureus MTCC 737 at 10 ug/well after 24 hr by agar well diffusion method; settings: for zone of inhibition at 10 µg/disc: MTCC 737, 24 h, read-out: DIZ
[11] = test system: Pseudomonas aeruginosa; assay: Antibacterial activity against Pseudomonas aeruginosa MTCC 741 after 24 hr by agar dilution method
[12] = test system: Streptococcus pyogenes; assay: Antibacterial activity against Streptococcus pyogenes MTCC 442 after 24 hr by agar dilution method

Molecule | zone of inhibition at 10 µg/disc [1] [mm] | zone of inhibition at 10 µg/disc [2] [mm] | zone of inhibition at 10 µg/disc [3] [mm] | zone of inhibition at 10 µg/disc [5] [mm] | zone of inhibition at 10 µg/disc [6] [mm] | zone of inhibition at 10 µg/disc [7] [mm] | zone of inhibition at 10 µg/disc [8] [mm] | zone of inhibition at 10 µg/disc [9] [mm] | zone of inhibition at 10 µg/disc [10] [mm] | zone of inhibition at 10 µg/disc [4] [mm] | other results
NS(=O)(=O)c1ccc(Nc2ccc3c(C(=O)O)cc(-c4ccccc4)nc3c2)cc1 | 11 | 4 | 5 | 8 | 5 | 2 | 5 | 5 | 9 | – | diameter of the inhibition zone (DIZ) [4]: inactive
O=C(O)c1cc(-c2ccccc2)nc2cc(Cl)ccc12 | 6 | 2 | 7 | 7 | 4 | 8 | 4 | 5 | – | 3 | diameter of the inhibition zone (DIZ) [10]: inactive
GENTAMICIN | – | – | – | – | – | – | – | – | – | – | inhibition zone (IZ) [1]: 19 mm; inhibition zone (IZ) [2]: 19 mm; inhibition zone (IZ) [3]: 18 mm; inhibition zone (IZ) [4]: 16 mm; inhibition zone (IZ) [5]: 16 mm; inhibition zone (IZ) [6]: 17 mm; inhibition zone (IZ) [7]: 17 mm; inhibition zone (IZ) [8]: 17 mm; inhibition zone (IZ) [9]: 19 mm; inhibition zone (IZ) [10]: 16 mm
Cc1ccc(Nc2ccc3c(C(=O)O)cc(-c4ccccc4)nc3c2)cc1 | 8 | 3 | 9 | 8 | 7 | 9 | 6 | 6 | 5 | 3 | –
O=C(O)c1cc(-c2ccccc2)nc2cc(Nc3ccncc3)ccc12 | 4 | 5 | 7 | 4 | – | 6 | 5 | 5 | 3 | 4 | diameter of the inhibition zone (DIZ) [6]: inactive
O=C(O)c1cc(-c2ccccc2)nc2cc(Nc3ccccc3)ccc12 | 12 | 4 | 9 | 10 | 7 | 5 | 10 | 9 | 8 | 5 | MIC [11]: 9 µg; MIC [12]: 4 µg
NC(=S)Nc1ccc2c(C(=O)O)cc(-c3ccccc3)nc2c1 | 7 | 12 | 9 | 5 | 5 | 3 | 5 | – | 9 | – | diameter of the inhibition zone (DIZ) [4]: inactive; diameter of the inhibition zone (DIZ) [9]: inactive
O=C(O)CNc1ccc2c(C(=O)O)cc(-c3ccccc3)nc2c1 | 8 | 4 | 7 | 2 | 5 | 2 | 4 | – | – | 5 | diameter of the inhibition zone (DIZ) [9]: inactive; diameter of the inhibition zone (DIZ) [10]: inactive
NC(=O)Nc1ccc2c(C(=O)O)cc(-c3ccccc3)nc2c1 | 9 | 9 | 6 | 7 | 9 | 6 | 10 | 9 | 9 | 6 | –
COc1ccc(Nc2ccc3c(C(=O)O)cc(-c4ccccc4)nc3c2)cc1 | 5 | 8 | 8 | 3 | 5 | 3 | 4 | 4 | 2 | 3 | –
O=C(O)c1cc(-c2ccccc2)nc2cc(Nc3ccc([N+](=O)[O-])cc3)ccc12 | 8 | – | 3 | 12 | 2 | 11 | 9 | 5 | 7 | – | diameter of the inhibition zone (DIZ) [2]: inactive; diameter of the inhibition zone (DIZ) [4]: inactive
O=C(O)c1cc(-c2ccccc2)nc2cc(N3CCNCC3)ccc12 | 11 | 4 | 7 | 10 | 7 | 5 | 5 | 2 | 4 | 6 | –
O=C(O)c1cc(-c2ccccc2)nc2cc(Nn3cnnc3)ccc12 | 4 | – | 3 | 3 | – | 2 | 3 | – | 2 | 4 | diameter of the inhibition zone (DIZ) [2]: inactive; diameter of the inhibition zone (DIZ) [6]: inactive; diameter of the inhibition zone (DIZ) [9]: inactive
CC1COc2c(N3CCN(C)CC3)c(F)cc3c(=O)c(C(=O)O)cn1c23 (centres undefined) [OFLOXACIN] | 17 | 16 | 16 | 17 | 17 | 17 | 16 | 17 | 16 | 19 | –
O=C(O)c1cc(-c2ccccc2)nc2cc(Nc3nccs3)ccc12 | 13 | 15 | 12 | 7 | 13 | 12 | 13 | 9 | 10 | 5 | MIC [11]: 3 µg; MIC [12]: 5 µg
